Laboratory results taken from ChEMBL document CHEMBL1130913, “Synthesis and antibacterial in vitro activity of novel analogues of nematophin” (1998).
Values after ≈ are worked out from the molar mass of the structure shown.

What was measured:
[1] = tested on: Staphylococcus aureus; test: In vitro inhibitory activity in iso sensitest agar against Staphylococcus aureus strain ATCC 6538; type: functional
[2] = tested on: Staphylococcus hyicus; test: In vitro inhibitory activity in iso sensitest agar against Staphylococcus hyicus strain ATCC 9622; type: functional
[3] = tested on: Staphylococcus aureus; test: In vitro inhibitory activity in iso sensitest agar against Staphylococcus aureus strain ATCC 29213; type: functional
[4] = tested on: Staphylococcus intermedius; test: In vitro inhibitory activity in iso sensitest agar against Staphylococcus intermedius strain ATCC 9503; type: functional
[5] = tested on: Staphylococcus hyicus; test: In vitro inhibitory activity in iso sensitest agar against Staphylococcus hyicus strain ATCC 9621; type: functional
[6] = tested on: Staphylococcus intermedius; test: In vitro inhibitory activity in iso sensitest agar against Staphylococcus intermedius strain ATCC 29663; type: functional
[7] = tested on: Staphylococcus aureus; test: In vitro inhibitory activity in iso sensitest agar against Staphylococcus aureus strain ATCC 25923; type: functional
[8] = tested on: Staphylococcus aureus; test: In vitro inhibitory activity in iso sensitest agar against Staphylococcus aureus strain ATCC 6538 in addition with 0.5%serum; type: functional
[9] = tested on: Staphylococcus aureus; test: In vitro inhibitory activity in iso sensitest agar against Staphylococcus aureus strain ATCC 25923 in addition with 5%serum; type: functional
[10] = tested on: Staphylococcus hyicus; test: In vitro inhibitory activity in iso sensitest agar against Staphylococcus hyicus strain ATCC 9622 in addition with 5%serum; type: functional
[11] = tested on: Staphylococcus intermedius; test: In vitro inhibitory activity in iso sensitest agar against Staphylococcus intermedius strain ATCC 9503 in addition with 5%serum; type: functional
[12] = tested on: Staphylococcus intermedius; test: In vitro inhibitory activity in iso sensitest agar against Staphylococcus intermedius strain ATCC 29663 in addition with 5%serum; type: functional
[13] = tested on: Staphylococcus hyicus; test: In vitro inhibitory activity in iso sensitest agar against Staphylococcus hyicus strain ATCC 9621 in addition with 5%serum; type: functional
[14] = tested on: Staphylococcus hyicus; test: In vitro inhibitory activity in iso sensitest agar against Staphylococcus hyicus strain ATCC 9621 in addition with 0.5%blood; type: functional
[15] = tested on: Staphylococcus aureus; test: In vitro inhibitory activity in iso sensitest agar against Staphylococcus aureus strain ATCC 6538 in addition with 0.5%blood; type: functional
[16] = tested on: Staphylococcus aureus; test: In vitro inhibitory activity in iso sensitest agar against Staphylococcus aureus strain ATCC 29213 in addition with 5%serum; type: functional
[17] = tested on: Staphylococcus hyicus; test: In vitro inhibitory activity in iso sensitest agar against Staphylococcus hyicus strain ATCC 9621 in addition with 0.5%serum; type: functional
[18] = tested on: Staphylococcus hyicus; test: In vitro inhibitory activity in iso sensitest agar against Staphylococcus hyicus strain ATCC 9622 in addition with 5%blood; type: functional
[19] = tested on: Staphylococcus intermedius; test: In vitro inhibitory activity in iso sensitest agar against Staphylococcus intermedius strain ATCC 9503 in addition with 0.5%serum; type: functional
[20] = tested on: Staphylococcus intermedius; test: In vitro inhibitory activity in iso sensitest agar against Staphylococcus intermedius strain ATCC 9503 in addition with 5%blood; type: functional
[21] = tested on: Staphylococcus hyicus; test: In vitro inhibitory activity in iso sensitest agar against Staphylococcus hyicus strain ATCC 9622 in addition with 0.5%serum; type: functional
[22] = tested on: Staphylococcus hyicus; test: In vitro inhibitory activity in iso sensitest agar against Staphylococcus hyicus strain ATCC 9621 in addition with 5%blood; type: functional
[23] = tested on: Staphylococcus hyicus; test: In vitro inhibitory activity in iso sensitest agar against Staphylococcus hyicus strain ATCC 9622 in addition with 0.5%blood; type: functional
[24] = tested on: Staphylococcus aureus; test: In vitro inhibitory activity in iso sensitest agar against Staphylococcus aureus strain ATCC 6538 in addition with 5%blood; type: functional
[25] = tested on: Staphylococcus intermedius; test: In vitro inhibitory activity in iso sensitest agar against Staphylococcus intermedius strain ATCC 9503 in addition with 0.5%blood; type: functional
[26] = tested on: Staphylococcus aureus; test: In vitro inhibitory activity in iso sensitest agar against Staphylococcus aureus strain ATCC 6538 in addition with 5%serum; type: functional
[27] = tested on: Staphylococcus aureus; test: In vitro inhibitory activity in iso sensitest agar against Staphylococcus aureus strain ATCC 6538 in addition with 5%blood
[28] = tested on: Staphylococcus aureus; test: In vitro inhibitory activity in iso sensitest agar against Staphylococcus aureus strain ATCC 6538 in addition with 0.5%serum
[29] = tested on: Staphylococcus aureus; test: In vitro inhibitory activity in iso sensitest agar against Staphylococcus aureus strain ATCC 6538 in addition with 5%serum
[30] = tested on: Staphylococcus hyicus; test: In vitro minimum inhibitory concentration in iso sensitest agar against Staphylococcus hyicus strain ATCC 9622; type: functional
[31] = tested on: Staphylococcus hyicus; test: In vitrIn vitro inhibitory activity in iso sensitest agar against Staphylococcus hyicus strain ATCC 9621; type: functional

| Structure (SMILES) | MIC [1] [µg/mL] | MIC [2] [µg/mL] | MIC [3] [µg/mL] | MIC [4] [µg/mL] | MIC [5] [µg/mL] | MIC [6] [µg/mL] | MIC [7] [µg/mL] | MIC [9] [µg/mL] | MIC [10] [µg/mL] | MIC [11] [µg/mL] | MIC [12] [µg/mL] | MIC [13] [µg/mL] | MIC [16] [µg/mL] | MIC [26] [µg/mL] | further results |
| --- | --- | --- | --- | --- | --- | --- | --- | --- | --- | --- | --- | --- | --- | --- | --- |
| CC(C)CC(=O)C(=O)NCCc1c[nH]c2ccccc12 | 0.125 (≈ 0.459 µM) | 0.03 (≈ 0.11 µM) | 0.25 (≈ 0.918 µM) | 1 (≈ 3.67 µM) | 0.25 (≈ 0.918 µM) | 2 (≈ 7.34 µM) | 0.25 (≈ 0.918 µM) | – | – | – | – | – | – | – | – |
| CCC(C)C(=O)C(=O)NCCc1c[nH]c2ccccc12 (configuration not stated) | 0.25 (≈ 0.918 µM) | 0.5 (≈ 1.84 µM) | 0.125 (≈ 0.459 µM) | 2 (≈ 7.34 µM) | 1 (≈ 3.67 µM) | 8 (≈ 29.4 µM) | 0.125 (≈ 0.459 µM) | 4 (≈ 14.7 µM) | > 64 | 16 (≈ 58.7 µM) | 16 (≈ 58.7 µM) | > 64 | 4 (≈ 14.7 µM) | > 64 | MIC [8]: > 128 µg/mL; MIC [14]: 0.25 µg/mL (≈ 0.918 µM); MIC [15]: > 128 µg/mL; MIC [17]: > 128 µg/mL; MIC [18]: > 128 µg/mL; MIC [19]: 8 µg/mL (≈ 29.4 µM); MIC [20]: > 128 µg/mL; MIC [21]: 1 µg/mL (≈ 3.67 µM); MIC [22]: > 128 µg/mL; MIC [23]: 0.125 µg/mL (≈ 0.459 µM); MIC [24]: > 128 µg/mL; MIC [25]: 1 µg/mL (≈ 3.67 µM) |
| CCC(C)C(=O)C(=O)NCCc1cn(C(C)C)c2ccccc12 (configuration not stated) | 0.03 (≈ 0.0954 µM) | 0.5 (≈ 1.59 µM) | 0.03 (≈ 0.0954 µM) | 2 (≈ 6.36 µM) | 1 (≈ 3.18 µM) | 4 (≈ 12.7 µM) | 0.03 (≈ 0.0954 µM) | 16 (≈ 50.9 µM) | > 32 | > 32 | > 32 | > 32 | 8 (≈ 25.4 µM) | > 32 | – |
| CCC(C)C(=O)C(=O)NCCc1cn(Cc2ccccc2)c2ccccc12 (configuration not stated) | 0.125 (≈ 0.345 µM) | 1 (≈ 2.76 µM) | 0.125 (≈ 0.345 µM) | 2 (≈ 5.52 µM) | 1 (≈ 2.76 µM) | 8 (≈ 22.1 µM) | 0.125 (≈ 0.345 µM) | 16 (≈ 44.1 µM) | > 64 | > 64 | > 64 | > 64 | 16 (≈ 44.1 µM) | > 64 | – |
| CCC(C)C(=O)C(=O)NCCc1cn(C)c2ccccc12 (configuration not stated) | 0.015 (≈ 0.0524 µM) | 0.06 (≈ 0.21 µM) | 0.015 (≈ 0.0524 µM) | 0.5 (≈ 1.75 µM) | 0.06 (≈ 0.21 µM) | 2 (≈ 6.98 µM) | 0.015 (≈ 0.0524 µM) | 16 (≈ 55.9 µM) | > 32 | – | 32 (≈ 112 µM) | > 32 | 16 (≈ 55.9 µM) | > 32 | MIC [8]: 0.25 µg/mL (≈ 0.873 µM); MIC [27]: > 128 µg/mL; MIC [28]: 2 µg/mL (≈ 6.98 µM); MIC [29]: > 32 µg/mL; MIC [14]: 0.03 µg/mL (≈ 0.105 µM); MIC [15]: 0.06 µg/mL (≈ 0.21 µM); MIC [17]: 0.25 µg/mL (≈ 0.873 µM); MIC [18]: > 128 µg/mL; MIC [21]: 0.125 µg/mL (≈ 0.436 µM); MIC [22]: > 128 µg/mL; MIC [23]: 0.03 µg/mL (≈ 0.105 µM); MIC [24]: > 128 µg/mL; MIC [25]: 0.06 µg/mL (≈ 0.21 µM) |
| CC(C)CC(=O)C(=O)NCCc1cn(-c2ccccc2)c2ccccc12 | 0.03 (≈ 0.0861 µM) | – | 0.06 (≈ 0.172 µM) | 0.125 (≈ 0.359 µM) | – | 1 (≈ 2.87 µM) | 0.06 (≈ 0.172 µM) | > 64 | > 64 | > 64 | > 64 | > 64 | > 64 | > 64 | MIC [30]: 0.015 µg/mL (≈ 0.043 µM); MIC [31]: 0.06 µg/mL (≈ 0.172 µM) |
| CC(C)CC(=O)C(=O)NCCc1cn(C(C)C)c2ccccc12 | 0.125 (≈ 0.398 µM) | 0.25 (≈ 0.795 µM) | 0.25 (≈ 0.795 µM) | 1 (≈ 3.18 µM) | 0.06 (≈ 0.191 µM) | 2 (≈ 6.36 µM) | 0.06 (≈ 0.191 µM) | 32 (≈ 102 µM) | > 64 | 64 (≈ 204 µM) | 32 (≈ 102 µM) | > 64 | 32 (≈ 102 µM) | > 64 | – |
| CC(C)CC(=O)C(=O)NCCc1cn(C)c2ccccc12 | 0.03 (≈ 0.105 µM) | 0.03 (≈ 0.105 µM) | 0.03 (≈ 0.105 µM) | 0.5 (≈ 1.75 µM) | 0.03 (≈ 0.105 µM) | 2 (≈ 6.98 µM) | 0.03 (≈ 0.105 µM) | 16 (≈ 55.9 µM) | > 64 | 32 (≈ 112 µM) | 16 (≈ 55.9 µM) | > 64 | 16 (≈ 55.9 µM) | > 64 | – |
| CC(C)CC(=O)C(=O)NCCc1cn(Cc2ccccc2)c2ccccc12 | 1 (≈ 2.76 µM) | 2 (≈ 5.52 µM) | 2 (≈ 5.52 µM) | 2 (≈ 5.52 µM) | 1 (≈ 2.76 µM) | > 64 | 2 (≈ 5.52 µM) | > 64 | > 64 | > 64 | > 64 | > 64 | > 64 | > 64 | – |
| CCC(C)C(=O)C(=O)NC(C)Cc1c[nH]c2ccccc12 (configuration not stated) | 1 (≈ 3.49 µM) | 0.5 (≈ 1.75 µM) | – | 0.5 (≈ 1.75 µM) | 1 (≈ 3.49 µM) | – | – | – | – | – | – | – | – | – | – |
